Test results published in patent publication US20240376048A1 (Celgene Corporation, priority 2021, published 2024).

Target: S1P5 (Homo sapiens, UniProt Q9H228)
Test: [35S]-GTPγS binding assay (S1P5 agonism), CHO cell membranes
Assay type: biochemical
Conditions: membranes of CHO cells expressing recombinant S1P5 receptors, measure of S1P5 agonism
Procedure: CHO cells expressing recombinant S1P5 receptors were cultured in 500 cm^2 culture trays and, once confluent, rinsed and detached with cell-lifting buffer (10 mM HEPES, 154 mM NaCl, 6.85 mM EDTA, pH 7.4). Cells were then pelleted by centrifugation, resuspended, and homogenized in membrane preparation buffer (10 mM HEPES and 10 mM EDTA, pH 7.4) using a Polytron PT 1200E homogenizer (Kinematica, Luzern, Switzerland). Cellular proteins were pelleted by centrifugation at 48,000×g at 4° C. for 30 minutes. The resulting supernatant was discarded, and the pellet was re-suspended again in membrane preparation buffer, homogenized for a second time, and then centrifuged again as described above. The final cellular protein pellet was suspended in ice cold resuspension buffer (10 mM HEPES and 0.1 mM EDTA, pH 7.4), divided into aliquots, and stored at −80° C. until use.
Functional binding assays for [^35S]-GTPγS were performed in 96-well non-binding surface plates with a final volume of 200 μL. The test compounds were serially diluted in DMSO and added to assay plates using a Tecan D300E digital printer with a total volume of […]. The control sphingosine-1-phosphate (S1P) was prepared separately by preparing a 400 μM stock solution from a 100 nmol pellet of S1P in 10 mM Na2CO3 with 2% […]. The serial dilution of S1P was done using complete assay buffer (20 mM HEPES, 10 mM MgCl2, 100 mM NaCl, 1 mM EDTA, 0.1% fatty acid free bovine serum albumin (BSA), and 30 μg/mL saponin, pH 7.4) and transferred to wells already containing 0.4 μL DMSO. All the wells were then loaded to a total volume of 40 μL of complete assay buffer, except the non-specific binding (NSB) wells. For NSB wells, 40 μL/well of 50 μM GTPγS (Sigma Aldrich, cat #G8634, St. Louis, MO) was added to wells containing 0.4 μL of DMSO. The assay was started by the addition of 120 μL/well of CHO-SlP receptor membrane solution containing 40 μg/mL of membrane protein, 16.67 μM guanosine diphosphate (GDP; Sigma Aldrich, cat #G7127, St. Louis, MO), and 2.5 mg/mL of WGA PVT SPA beads in complete buffer. Assay plates were then sealed and incubated at room temperature with gentle agitation for 30 minutes. Next, 40 µL/well of 1 nM of [^35S]-GTPγS (PerkinElmer, cat #NEG030X25OUC, Waltham, MA) in basic assay buffer (20 mM HEPES, 10 mM MgCl2, 100 mM NaCl, and 1 mM EDTA, pH7.4) was added to the assay plates to yield a final concentration of 200 pM and the plates were further incubated for 40 minutes at room temperature with gentle agitation. The assay was terminated by centrifugation of the plates at 1000 rpm for 3 minutes using an Eppendorf 5810R centrifuge (Eppendorf, Hamburg, Germany) and G protein bound radioactivity was quantitated using a MicroBeta2 microplate scintillation counter (PerkinElmer, Waltham, MA). As G protein bound radioactivity directly correlates to receptor activation and coupling to the G protein, this assay is a measure of S1P5 agonism.

Chain of S1P5 (Q9H228 whole entry, species assumed): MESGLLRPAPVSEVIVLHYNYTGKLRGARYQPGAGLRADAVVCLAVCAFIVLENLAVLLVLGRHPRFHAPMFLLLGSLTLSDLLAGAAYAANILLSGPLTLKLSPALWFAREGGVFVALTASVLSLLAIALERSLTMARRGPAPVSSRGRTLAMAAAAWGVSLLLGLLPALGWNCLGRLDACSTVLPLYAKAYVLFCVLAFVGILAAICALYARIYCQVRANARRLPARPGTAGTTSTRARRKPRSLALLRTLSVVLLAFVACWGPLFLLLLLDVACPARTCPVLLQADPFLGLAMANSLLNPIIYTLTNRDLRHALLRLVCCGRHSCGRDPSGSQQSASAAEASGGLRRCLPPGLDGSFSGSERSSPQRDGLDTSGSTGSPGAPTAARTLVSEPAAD

| EC50 | Compound |
| --- | --- |
| 10 to 100 nM | O=C(O)[C@H]1CCN(C2CCc3cc(OCc4c(Cl)cccc4Cl)ccc32)C1 (single isomer, unassigned) [Compound 24a] |
| 1 to 10 nM | O=C(O)[C@H]1CCN(C2CCc3cc(OCc4c(Cl)cccc4Cl)ccc32)C1 (single isomer, unassigned) [Compound 24b] |
| 1 to 10 nM | O=C(O)[C@@H]1CCN(C2CCc3cc(OCc4c(Cl)cccc4Cl)ccc32)C1 (single isomer, unassigned) [Compound 25a] |
| 1 to 10 nM | O=C(O)[C@@H]1CCN(C2CCc3cc(OCc4c(Cl)cccc4Cl)ccc32)C1 (single isomer, unassigned) [Compound 25b] |
| 10 to 100 nM | O=C(O)C1CCN(C2CCc3cc(OCc4cccc(C(F)(F)F)c4)ccc32)CC1 (single isomer, unassigned) [Compound 26a, 1-(5-((3-(trifluoromethyl)benzyl)oxy)-2,3-dihydro-1H-inden-1-yl)piperidine-4-carboxylic acid] |
| 100 to 1000 nM | O=C(O)C1CCN(C2CCc3cc(OCc4cccc(C(F)(F)F)c4)ccc32)CC1 (single isomer, unassigned) [Compound 26b, 1-(5-((3-(trifluoromethyl)benzyl)oxy)-2,3-dihydro-1H-inden-1-yl)piperidine-4-carboxylic acid] |
| 1 to 10 nM | Cc1ccc(COc2ccc3c(c2)CCC3N2CC(C(=O)O)C2)cc1Cl (centres unmarked) [Compound 1, 1-(5-((3-chloro-4-methylbenzyl)oxy)-2,3-dihydro-1H-inden-1-yl)azetidine-3-carboxylic acid] |
| 10 to 100 nM | Cc1ccc(COc2ccc3c(c2)CCC3N2CC(C(=O)O)C2)cc1C(F)(F)F (centres unmarked) [Compound 2, 1-(5-((4-methyl-3-(trifluoromethyl)benzyl)oxy)-2,3-dihydro-1H-inden-1-yl)azetidine-3-carboxylic acid] |
| 1 to 10 nM | Cc1ccc(COc2ccc3c(c2)CCC3N2CC(C(=O)O)C2)c(Cl)c1 (centres unmarked) [Compound 3, 1-(5-((2-chloro-4-methylbenzyl)oxy)-2,3-dihydro-1H-inden-1-yl)azetidine-3-carboxylic acid] |
| 10 to 100 nM | Cc1ccc(COc2ccc3c(c2)CCC3N2CC(C(=O)O)C2)c(F)c1 (centres unmarked) [Compound 4, 1-(5-((2-fluoro-4-methylbenzyl)oxy)-2,3-dihydro-1H-inden-1-yl)azetidine-3-carboxylic acid] |
| 1 to 10 nM | CC(C)Oc1ccc(COc2ccc3c(c2)CCC3N2CC(C(=O)O)C2)cc1C(F)(F)F (centres unmarked) [Compound 5, 1-(5-((4-isopropoxy-3-(trifluoromethyl)benzyl)oxy)-2,3-dihydro-1H-inden-1-yl)azetidine-3-carboxylic acid] |
| 10 to 100 nM | CC(C)Oc1ccc(COc2ccc3c(c2)CCC3N2CC(C(=O)O)C2)cc1C#N (centres unmarked) [Compound 6, 1-(5-((3-cyano-4-isopropoxybenzyl)oxy)-2,3-dihydro-1H-inden-1-yl)azetidine-3-carboxylic acid] |
| 10 to 100 nM | O=C(O)C1CN(C2CCc3cc(OCc4ccc(C5CC5)cc4F)ccc32)C1 (centres unmarked) [Compound 7, 1-(5-((4-cyclopropyl-2-fluorobenzyl)oxy)-2,3-dihydro-1H-inden-1-yl)azetidine-3-carboxylic acid] |
| 10 to 100 nM | O=C(O)C1CN(C2CCc3cc(OCc4ccc(C5CC5)cc4Cl)ccc32)C1 (centres unmarked) [Compound 8, 1-(5-((2-chloro-4-cyclopropylbenzyl)oxy)-2,3-dihydro-1H-inden-1-yl)azetidine-3-carboxylic acid] |
| 1 to 10 nM | O=C(O)C1CN(C2CCc3cc(OCc4ccc(C5CC5)c(C(F)(F)F)c4)ccc32)C1 (centres unmarked) [Compound 9, 1-(5-((4-cyclopropyl-3-(trifluoromethyl)benzyl)oxy)-2,3-dihydro-1H-inden-1-yl)azetidine-3-carboxylic acid] |
| 10 to 100 nM | O=C(O)C1CN(C2CCc3cc(OCc4ccc(C5CC5)c(Cl)c4)ccc32)C1 (centres unmarked) [Compound 10, 1-(5-((3-chloro-4-cyclopropylbenzyl)oxy)-2,3-dihydro-1H-inden-1-yl)azetidine-3-carboxylic acid] |

| EC50 | Compound |
| --- | --- |
| 10 to 100 nM | O=C(O)C1CN(C2CCc3cc(OCc4ccccc4F)ccc32)C1 (centres unmarked) [Compound 11, 1-(5-((2-fluorobenzyl)oxy)-2,3-dihydro-1H-inden-1-yl)azetidine-3-carboxylic acid] |
| 10 to 100 nM | O=C(O)C1CN(C2CCc3cc(OCc4cccc(F)c4)ccc32)C1 (centres unmarked) [Compound 12, 1-(5-((3-fluorobenzyl)oxy)-2,3-dihydro-1H-inden-1-yl)azetidine-3-carboxylic acid] |
| 10 to 100 nM | O=C(O)C1CN(C2CCc3cc(OCc4ccc(F)cc4)ccc32)C1 (centres unmarked) [Compound 13, 1-(5-((4-fluorobenzyl)oxy)-2,3-dihydro-1H-inden-1-yl)azetidine-3-carboxylic acid] |
| 10 to 100 nM | O=C(O)C1CN(C2CCc3cc(OCc4ccc(F)cc4F)ccc32)C1 (centres unmarked) [Compound 14, 1-(5-((2,4-difluorobenzyl)oxy)-2,3-dihydro-1H-inden-1-yl)azetidine-3-carboxylic acid] |
| 10 to 100 nM | O=C(O)C1CN(C2CCc3cc(OCc4cc(F)ccc4F)ccc32)C1 (centres unmarked) [Compound 15, 1-(5-((2,5-difluorobenzyl)oxy)-2,3-dihydro-1H-inden-1-yl)azetidine-3-carboxylic acid] |
| 10 to 100 nM | O=C(O)C1CN(C2CCc3cc(OCc4ccc(F)c(Cl)c4)ccc32)C1 (centres unmarked) [Compound 16, 1-(5-((3-chloro-4-fluorobenzyl)oxy)-2,3-dihydro-1H-inden-1-yl)azetidine-3-carboxylic acid] |
| 1 to 10 nM | O=C(O)C1CN(C2CCc3cc(OCc4cc(F)c(F)cc4F)ccc32)C1 (centres unmarked) [Compound 17, 1-(5-((2,4,5-trifluorobenzyl)oxy)-2,3-dihydro-1H-inden-1-yl)azetidine-3-carboxylic acid] |
| 10 to 100 nM | O=C(O)C1CN(C2CCc3cc(OCc4cc(F)cc(F)c4F)ccc32)C1 (centres unmarked) [Compound 18, 1-(5-((2,3,5-trifluorobenzyl)oxy)-2,3-dihydro-1H-inden-1-yl)azetidine-3-carboxylic acid] |
| 10 to 100 nM | O=C(O)C1CN(C2CCc3cc(OCc4ccc(F)c(F)c4)ccc32)C1 (centres unmarked) [Compound 19, 1-(5-((3,4-difluorobenzyl)oxy)-2,3-dihydro-1H-inden-1-yl)azetidine-3-carboxylic acid] |
| 10 to 100 nM | O=C(O)C1CN(C2CCc3cc(OCc4cccc(I)c4)ccc32)C1 (centres unmarked) [Compound 20, 1-(5-((3-iodobenzyl)oxy)-2,3-dihydro-1H-inden-1-yl)azetidine-3-carboxylic acid] |
| 100 to 1000 nM | O=C(O)C1CN(C2CCc3cc(OCc4ccc(I)cc4)ccc32)C1 (centres unmarked) [Compound 21, 1-(5-((4-iodobenzyl)oxy)-2,3-dihydro-1H-inden-1-yl)azetidine-3-carboxylic acid] |
| 100 to 1000 nM | O=C(O)[C@H]1[C@@H]2CN(C3CCc4cc(OCc5c(Cl)cccc5Cl)ccc43)C[C@@H]21 (stereo partly drawn) [Compound 22, (1R,5S,6r)-3-(5-((2,6-dichlorobenzyl)oxy)-2,3-dihydro-1H-inden-1-yl)-3-azabicyclo[3.1.0]hexane-6-carboxylic acid] |
| 1 to 10 nM | O=C(O)[C@@H]1[C@@H]2CN(C3CCc4cc(OCc5c(Cl)cccc5Cl)ccc43)C[C@@H]21 (stereo partly drawn) [Compound 23, (1R,5S,6s)-3-(5-((2,6-dichlorobenzyl)oxy)-2,3-dihydro-1H-inden-1-yl)-3-azabicyclo[3.1.0]hexane-6-carboxylic acid] |
| 1 to 10 nM | O=C(O)C1CC2(C1)CN(C1CCc3cc(OCc4c(Cl)cccc4Cl)ccc31)C2 (centres unmarked) [Compound 27, 2-(5-((2,6-dichlorobenzyl)oxy)-2,3-dihydro-1H-inden-1-yl)-2-azaspiro[3.3]heptane-6-carboxylic acid] |
| 10 to 100 nM | CC1(C)CC(C(=O)O)CCN1C1CCc2cc(OCc3c(Cl)cccc3Cl)ccc21 (centres unmarked) [Compound 28, 1-(5-((2,6-dichlorobenzyl)oxy)-2,3-dihydro-1H-inden-1-yl)-2,2-dimethylpiperidine-4-carboxylic acid] |
| 10 to 100 nM | CC1(C(=O)O)CCN(C2CCc3cc(OCc4c(Cl)cccc4Cl)ccc32)CC1 (centres unmarked) [Compound 29, 1-(5-((2,6-dichlorobenzyl)oxy)-2,3-dihydro-1H-inden-1-yl)-4-methylpiperidine-4-carboxylic acid] |
